{
  "source": "patent US6716826B2",
  "about": "“Compounds and their uses” (Rodaris Pharmaceuticals Limited, priority 2000, dated 2004)",
  "key": {"[1]": {"test_system": "PKA", "test": "PKA inhibition assay", "assay_type": "biochemical", "source_text": "(§1) Methods for obtaining A-type and P-type mediators are set out in Caro et al, 1997, and in WO98/11116 and WO98/11117. Protocols for determining characteristic IPG biological activities such as PDH activation, PKA inhibition, acetylCoA activation, fructose-1,6-bis-phosphatase activity and lipogenesis are well known in the art, e.g. as described in Caro et al ^[14].\n(§2) The compounds of the invention can be tested for one or more the characteristic IPGP and/or IPG-A activities mentioned above to determine whether they will be suitable for use a IPG mimetics or antagonists. Preferred assays measure the effect of the compounds on PDH phosphatasc, PKA or lipogenesis. Protocols for these assays are provided in Caro et al ^[14]."}, "[2]": {"test_system": "PDH phosphatase", "test": "PDH activation assay", "assay_type": "biochemical", "source_text": "as §1, §2"}},
  "data": [
    {"smiles": "NC1C(OC2C(O)C(O)C(O)C(O)C2O)OC(CO)C(OC2OC(CO)C(O)C(O)C2O)C1O", "note": "[RGL1014, O-α-D-Galactopyranosyl-(1-4)-(2-amino-2-deoxy-α-D-glucopyranosyl)-(1-6)-D-myo-inositol]", "values": [
      {"measurement": "PKA inhibition at 0.1 μM", "setting": "[1]", "result": 2, "unit": "%"}
    ]},
    {"smiles": "NC1C(OC2C(O)C(O)C(O)C(O)C2OP(=O)(O)O)OC(CO)C(OC2OC(CO)C(O)C(O)C2O)C1O", "note": "[RGL1022, O-α-D-galactopyranosyl-(1-4)-2-ammonio-2-deoxy-α-D-glucopyranosyl-(1-6)-D-chiro-inositol-1-phosphate]", "values": [
      {"measurement": "PKA inhibition at 0.1 μM", "setting": "[1]", "result": 47, "unit": "%"}
    ]},
    {"smiles": "NC1C(OC2C(O)C(O)C(O)C(O)C2O)OC(CO)C(OC2OC(CO)C(O)C(O)C2O)C1O", "note": "[RGL1021, O-(α-D-galactopyranosyl)-(1-4)-(2-amino-2-deoxy-α-D-glucopyranosyl)-(1-6)-D-chiro-inositol]", "values": [
      {"measurement": "PDH activation at 100 μM", "setting": "[2]", "result": 14, "unit": "%"}
    ]}
  ]
}
